Publication PMC2774688, “Cellular Ser/Thr-Kinase Assays Using Generic Peptide Substrates” (Current Chemical Genomics, 2008)

Key:
B-Raf(V600E) [1] = target: T1, B-Raf(V600E) (Homo sapiens, UniProt P15056, V600E); experiment: B-Raf(V600E)/MEK1(WT) cellular TR-FRET assay (double stable HEK293 T-Rex cells); format: cell-based; settings: MEK(WT) substrate, ~2h compound treatment, SD in parentheses (n=4-6); for IC50: 384-well
T1 construct: Full-length B-Raf wild-type (WT) and B-Raf(V600E) (NM_004333) cDNAs were subcloned from pcDNA3.1 into pcDNA5TO; expressed in transfected cells

B-Raf(V600E) [2] = target: T1, B-Raf(V600E); experiment: B-Raf(V600E)/MEK1(KD) cellular TR-FRET assay (double stable HEK293 T-Rex cells); format: cell-based; settings: for IC50: B-Raf(V600E) TR-FRET, kinase-inactive MEK(KD) substrate, 384-well, ~2h compound treatment, SD in parentheses (n=4-6)
B-Raf(V600E) [3] = target: T1, B-Raf(V600E); experiment: B-Raf(V600E)/cSTKpep-3 cellular TR-FRET assay (double stable HEK293 T-Rex cells); format: cell-based; settings: cSTKpep-3 substrate, ~2h compound treatment, SD in parentheses (n=4-6); for IC50: 384-well
AKT = target: T2, AKT (Homo sapiens, UniProt P31749); experiment: AKT/cSTKpep-3 cellular TR-FRET assay (transient, HEK293); format: cell-based; settings: Fig. 7C; comparable potencies in both assays
T2 construct: expressed in transfected cells; host or cells: HEK293 (transient co-transfection)

[4] = system: AKT activation (Ser473 phosphorylation); experiment: p-AKT(Ser473) cellular TR-FRET assay with His-tagged AKT (HEK293); format: cell-based, human; settings: for observed potency (concentration range), AKT phosphorylation assay: Fig. 7B, comparable potencies in both assays
[5] = system: B-Raf(V600E)-Ba/F3 cell line; experiment: B-Raf(V600E)-Ba/F3 proliferation assay (Cell-Titer-Glo); format: cell-based; settings: 384-well, called historical data, SD in parentheses (n=4-6)
Experimental: The B-Raf(V600E)-Ba/F3 cell line was generously provided by Markus Warmuth (GNF). Ba/F3 cells were counted and diluted to a final concentration of 75,000 cells/ml in RPMI media and 50μl/well were plated into 384-well white solid bottom plates. 50nl of a 10mM compound stock in DMSO were pintool transferred followed by a 48h incubation time at 37°C for 48h. Finally, 25μl Cell-Titer-Glo (Promega) detection reagent was added each and luminescence read were taken on a […] (Molecular Devices Corp.) reader.

CamK2δ = experiment: CamK2δ/cSTKpep-1 cellular TR-FRET assay (transient, HEK 293); format: cell-based; settings: 5min ionomycin treatment (1µM)
Experimental: HEK293 cells were transfected using Fugene 6 (Roche) at a density of 8000 cells/well in 384-well plates and a final transfection volume of 30μl. The amounts of kinase and substrate plasmids per well varied for each experiment and are specified in the figure legends. Cell lysis and detection of phosphorylated or total substrate levels was performed 48h post transfection by addition of 30μl detection buffer (50 mM Hepes pH 7.2, 0.1% BSA, 20mM EDTA, 0.8M KF, and 2% Triton) containing anti-FLAG XL665 (2ng/ul) and Eu-pSTK (0.18ng/μl) or Eu-pMEK1 (0.24ng/μl). For the relative determination of total substrate levels 30μl detection buffer was added per well containing anti-FLAG XL665 (2ng/μl) and Eu-cMyc (0.3ng/μl). Plates were incubated for 3-6h at room temperature and TR-FRET readings taken on Acquest, Analyst GT (Molecular Devices Corp.), Envision or Viewlux (Perkin Elmer) plate readers. […]
Fig. (8). Induction of CamK2δ activity. Transient transfection reactions were performed in 384-well plates as indicated. HEK 293 were reverse transfected with 50ng CamK2δ and 50ng (black bars) or 25ng (gray bars) cSTKpep-1. CamK2δ activity was induced through 5min ionomycin treatment (1µM) and p-cSTKpep-1 was quantified by TR-FRET.

T1 sequence (P15056 whole entry V600E): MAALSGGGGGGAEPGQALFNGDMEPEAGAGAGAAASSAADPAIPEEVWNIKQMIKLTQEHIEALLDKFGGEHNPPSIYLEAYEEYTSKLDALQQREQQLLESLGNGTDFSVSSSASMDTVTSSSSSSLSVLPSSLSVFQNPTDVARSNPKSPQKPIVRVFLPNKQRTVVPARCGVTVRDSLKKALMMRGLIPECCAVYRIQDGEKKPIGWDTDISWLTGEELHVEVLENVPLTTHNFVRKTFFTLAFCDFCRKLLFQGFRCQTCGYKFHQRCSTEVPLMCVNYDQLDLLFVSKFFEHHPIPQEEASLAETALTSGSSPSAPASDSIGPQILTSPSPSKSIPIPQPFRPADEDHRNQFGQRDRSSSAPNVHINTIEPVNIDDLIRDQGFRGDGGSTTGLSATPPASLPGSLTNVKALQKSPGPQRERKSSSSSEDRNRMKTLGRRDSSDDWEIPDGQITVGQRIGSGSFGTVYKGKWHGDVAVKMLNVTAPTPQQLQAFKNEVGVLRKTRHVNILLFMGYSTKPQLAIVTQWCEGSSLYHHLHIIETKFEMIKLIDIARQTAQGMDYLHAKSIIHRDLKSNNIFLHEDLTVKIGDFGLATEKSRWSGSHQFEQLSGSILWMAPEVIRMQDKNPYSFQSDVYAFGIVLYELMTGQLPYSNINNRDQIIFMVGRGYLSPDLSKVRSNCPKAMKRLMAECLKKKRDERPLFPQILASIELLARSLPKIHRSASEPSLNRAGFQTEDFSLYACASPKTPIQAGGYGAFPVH
T2 sequence (P31749 whole entry): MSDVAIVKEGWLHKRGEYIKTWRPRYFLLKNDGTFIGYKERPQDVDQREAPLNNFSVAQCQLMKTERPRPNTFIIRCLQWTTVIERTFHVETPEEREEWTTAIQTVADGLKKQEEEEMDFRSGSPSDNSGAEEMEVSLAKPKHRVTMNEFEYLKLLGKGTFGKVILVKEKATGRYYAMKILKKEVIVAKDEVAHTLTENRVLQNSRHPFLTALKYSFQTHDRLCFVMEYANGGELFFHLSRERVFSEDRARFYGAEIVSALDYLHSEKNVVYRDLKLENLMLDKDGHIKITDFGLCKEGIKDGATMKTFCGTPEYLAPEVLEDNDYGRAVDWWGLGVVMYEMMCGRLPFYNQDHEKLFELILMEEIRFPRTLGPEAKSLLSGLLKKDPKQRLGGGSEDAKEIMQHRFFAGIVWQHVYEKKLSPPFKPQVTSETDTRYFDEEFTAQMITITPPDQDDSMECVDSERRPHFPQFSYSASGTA

| Structure (SMILES) | IC50 (B-Raf(V600E) [1]) | IC50 MEK(WT) 384-well (B-Raf(V600E) [1]) | IC50 (B-Raf(V600E) [2]) | IC50 (B-Raf(V600E) [3]) | IC50 cSTKpep-3 384-well (B-Raf(V600E) [3]) | observed potency (concentration range), cSTKpep-3 phosphorylation assay (AKT) | observed potency (concentration range), AKT phosphorylation assay [4] | other results |
| --- | --- | --- | --- | --- | --- | --- | --- | --- |
| O=c1cc(N2CCOCC2)oc2c(-c3ccccc3)cccc12 [LY294002, 2-(4-morpholinyl)-8-phenyl-4H-1-benzopyran-4-one] | > 33 µM | did not show any activity | > 33 µM | > 33 µM | did not show any activity | low micromolar | low micromolar | – |
| O=C(NOC[C@H](O)CO)c1ccc(F)c(F)c1Nc1ccc(I)cc1F [PD0325901] | – | – | – | – | – | – | – | IC50 MEK(KD) 384-well (B-Raf(V600E) [2]): inactive; IC50 ([5]; Mus musculus, BaF3, 48h): […] |
| CN[C@@H]1C[C@H]2O[C@@](C)([C@@H]1OC)n1c3ccccc3c3c4c(c5c6ccccc6n2c5c31)C(=O)NC4 [Staurosporine] | – | – | – | – | – | – | – | factor between activity on p-AKT versus p-cSTKpep-3 ([4]; p-AKT IC50 versus p-cSTKpep-3 IC50): ~ 100 fold |
| C[C@H](CCC(=O)O)C[C@H](C)C[C@H](C)C(=O)/C=C(\O)[C@H](C)C[C@H](C)C/C=C/[C@@H](C)[C@@H](O)[C@@H](C)[C@@H](O)C[C@@H]1CC[C@@](C)([C@H]2CC[C@@](C)([C@@H](C)O)O2)O1 [ionomycin] | – | – | – | – | – | – | – | induction of CamK2δ activity / cSTKpep-1 phosphorylation (CamK2δ): ionomycin inducible |
| COC[C@H]1OC(=O)c2coc3c2[C@@]1(C)C1=C(C3=O)[C@@H]2CCC(=O)[C@@]2(C)C[C@H]1OC(C)=O [Wortmannin] | > 33 µM | did not show any activity | > 33 µM | > 33 µM | did not show any activity | low nanomolar | low nanomolar | – |
